Literature values in patent US20090018107A1, “NOVEL COMPOSITION TO INCREASE MUSCLE STRENGTH” (ORAL DELIVERY TECHNOLOGY LTD., priority 2007, published 2009).

Tests used:
[1] = U.S. Pat. No. 5,880,117
[2] = U.S. Pat. No. 6,989,378

Row | SMILES | Period of decline after the peak [1] | Time to peak concentration after administration [1] | Solubility in oily media [2]
1 | C[C@]12CC[C@H]3[C@@H](CCC4=C[C@@H](O)CC[C@@]43C)[C@@H]1CC[C@@H]2O [4-androstene-3β,17β-diol] | 3 to 4 h | ≤ 90 min | –
2 | CCCCCCCCCCC(=O)O[C@H]1CC[C@H]2[C@H]3[C@H](CC[C@]12C)[C@H]1CCC(=O)C=C1C[C@H]3C [MENT undecanoate, (7α,17β)-7-methyl-17-[(1-ox-oundecyl)oxy]estr-4-en-3one] | – | – | good solubility
